Reference: patent US20240018158A1, “BRM TARGETING COMPOUNDS AND ASSOCIATED METHODS OF USE” (Prelude Therapeutics Incorporated, priority 2020, published 2024)

How the values were obtained:
[1] = target: SMARCA4 (Homo sapiens (Human), UniProt P51532); test: In Cell Western SMARCA4 degradation in NCIH520 cells; type: cell-based; settings: for DC50: H520 cells, overnight, read-out: DC50 (SM4_H520) SMARCA4 degradation potency; for Dmax: NCI-H520, overnight, read-out: Dmax % (SM4_H520) maximum SMARCA4 degradation within the concentrations tested
Sequence of SMARCA4 (P51532 whole entry): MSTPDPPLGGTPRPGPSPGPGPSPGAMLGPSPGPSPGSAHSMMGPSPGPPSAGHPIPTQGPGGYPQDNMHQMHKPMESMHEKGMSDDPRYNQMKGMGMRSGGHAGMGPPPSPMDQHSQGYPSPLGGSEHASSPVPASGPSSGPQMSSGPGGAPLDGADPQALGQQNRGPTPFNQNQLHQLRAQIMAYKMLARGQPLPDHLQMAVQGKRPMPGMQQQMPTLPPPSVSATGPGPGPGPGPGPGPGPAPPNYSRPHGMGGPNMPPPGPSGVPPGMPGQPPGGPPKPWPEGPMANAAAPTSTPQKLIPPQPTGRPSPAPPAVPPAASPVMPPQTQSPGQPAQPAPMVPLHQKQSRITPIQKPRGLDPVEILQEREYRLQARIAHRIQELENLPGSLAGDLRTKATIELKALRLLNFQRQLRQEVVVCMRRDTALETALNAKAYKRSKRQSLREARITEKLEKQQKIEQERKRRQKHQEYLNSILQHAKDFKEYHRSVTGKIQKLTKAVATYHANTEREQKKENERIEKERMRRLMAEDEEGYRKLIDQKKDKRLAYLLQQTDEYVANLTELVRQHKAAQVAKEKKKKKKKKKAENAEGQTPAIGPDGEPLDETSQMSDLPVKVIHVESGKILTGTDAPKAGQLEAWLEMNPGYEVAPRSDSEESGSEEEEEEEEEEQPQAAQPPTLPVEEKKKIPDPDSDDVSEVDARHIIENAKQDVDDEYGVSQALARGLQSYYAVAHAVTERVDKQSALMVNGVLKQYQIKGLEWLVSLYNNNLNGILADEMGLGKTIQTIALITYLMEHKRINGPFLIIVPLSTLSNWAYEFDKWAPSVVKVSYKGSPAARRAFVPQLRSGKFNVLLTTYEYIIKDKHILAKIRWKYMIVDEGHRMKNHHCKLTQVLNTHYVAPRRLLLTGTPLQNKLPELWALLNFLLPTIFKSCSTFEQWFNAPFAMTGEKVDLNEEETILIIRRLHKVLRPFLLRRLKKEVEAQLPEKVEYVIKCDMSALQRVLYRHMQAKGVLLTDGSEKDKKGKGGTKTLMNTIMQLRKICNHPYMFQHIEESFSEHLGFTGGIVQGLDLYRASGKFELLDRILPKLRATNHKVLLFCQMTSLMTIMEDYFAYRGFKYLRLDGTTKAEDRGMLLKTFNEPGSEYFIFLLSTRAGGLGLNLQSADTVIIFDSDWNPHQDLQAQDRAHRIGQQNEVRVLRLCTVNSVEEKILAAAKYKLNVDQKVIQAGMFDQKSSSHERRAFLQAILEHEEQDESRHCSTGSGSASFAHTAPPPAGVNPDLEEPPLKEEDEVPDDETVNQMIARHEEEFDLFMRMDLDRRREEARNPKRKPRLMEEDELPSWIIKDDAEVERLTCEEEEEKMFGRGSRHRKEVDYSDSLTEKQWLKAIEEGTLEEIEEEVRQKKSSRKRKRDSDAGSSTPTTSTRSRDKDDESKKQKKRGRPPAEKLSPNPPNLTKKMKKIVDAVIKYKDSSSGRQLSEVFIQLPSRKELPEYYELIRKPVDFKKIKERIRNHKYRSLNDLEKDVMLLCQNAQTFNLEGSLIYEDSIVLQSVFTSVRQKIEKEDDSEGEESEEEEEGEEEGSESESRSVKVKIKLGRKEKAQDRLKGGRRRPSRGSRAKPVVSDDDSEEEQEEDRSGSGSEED
Method: (§1) Compound titration and cell culture: Compounds were dissolved in DMSO to make 10 mM stock and 3-fold series dilutions were further conducted keeping the highest concentration 10 μM. NCIH1693 and NCIH520 cells were maintained in PRMI 1640 medium (Corning Cellgro, Catalog #:10-040-CV) supplemented with 10% v/v FBS (GE Healthcare, Catalog #: SH30910.03) by splitting 1:3 twice a week.
(§2) To determine SMACRA2 and SMARCA4 protein degradation DC50 values in NCIH1693 and NCIH520 cells by In Cell Western (ICW) analysis. Cells were trypsinized and 30 thousand cells/well were seeded into 384-well plates and were allowed to grow for 5 hours at 37° C. Eight-point, 3-fold serial dilutions of compounds from 10 mM stocks were added to the cells (using digital Dispenser D300-Tecan, keeping highest concentration 10 μM and normalizing with DMSO at the highest dispensed volume). Plates were incubated at 37° C. for overnight (maximum 18 hours). Cells incubated with DMSO was used as a vehicle control.
(§3) To perform In Cell Western, medium was removed from all the wells leaving cells attached to the surface. After removing the medium, cells were fixed within the plates with 40 μL of 4% formaldehyde by incubating at room temperature for 30 minutes, and then permeabilized with wash buffer (1×PBS with 0.1% Triton X-100) by washing the plate 5 times with 50 μL/well. Before labeling with primary antibodies, cells were blocked with 30 μL/well of blocking buffer (Licor Odyssey blocking buffer PBS #927-40000) for 30 minutes at room temperature. To measure SMARCA2 or SMARCA4 proteins, cells were labeled with 20 μL/well of anti SMARCA2 or SMACRA4 antibodies (Cell Signaling BRM #11966S 1:1000, Cell Signaling BRG #49360S 1:1000) diluted in Li-Cor Odyssey blocking buffer-PBS #927-40000, followed by overnight incubation at 4° C.
(§4) The next day, plates were washed 5×5 minutes with 50 μL/well of washing buffer to remove all the excess primary antibody and then 20 μL from a mixture of secondary antibody and fluorescent DNA specific dye (Goat anti rabbit 1:500 IRDye-800CW #92632211, and DRAQ5™ 1:2000-#ab108410) was added to each well. Plates were incubated for 1 hour at room temperature with gentle rocking. Cells were washed 5 times with 50 μL/well wash buffer, followed by one last wash with DI water, followed by 10 mins drying at 37° C. oven before scanning. Plates were scanned using Li-Cor Odyssey CLx imaging system to acquire integrated intensities at 700 nm and 800 nm. SMARCA signals were normalized to total cell count and then these normalized values were used to calculate the percent degradation relative to DMSO control and maximum inhibition. DC50s were calculated by using the GraphPad Prism4 program based on sigmoidal dose response equation ([Inhibitor] vs. normalized response−Variable slope).

[2] = target: SMARCA2 (Homo sapiens (Human), UniProt P51531); test: In Cell Western SMARCA2 degradation in NCIH520 cells; type: cell-based; settings: for DC50: H520 cells, overnight, read-out: DC50 (SM2_H520) SMARCA2 degradation potency; for Dmax: NCI-H520, overnight, read-out: Dmax % (SM2_H520) maximum SMARCA2 degradation within the concentrations tested
Sequence of SMARCA2 (P51531 whole entry): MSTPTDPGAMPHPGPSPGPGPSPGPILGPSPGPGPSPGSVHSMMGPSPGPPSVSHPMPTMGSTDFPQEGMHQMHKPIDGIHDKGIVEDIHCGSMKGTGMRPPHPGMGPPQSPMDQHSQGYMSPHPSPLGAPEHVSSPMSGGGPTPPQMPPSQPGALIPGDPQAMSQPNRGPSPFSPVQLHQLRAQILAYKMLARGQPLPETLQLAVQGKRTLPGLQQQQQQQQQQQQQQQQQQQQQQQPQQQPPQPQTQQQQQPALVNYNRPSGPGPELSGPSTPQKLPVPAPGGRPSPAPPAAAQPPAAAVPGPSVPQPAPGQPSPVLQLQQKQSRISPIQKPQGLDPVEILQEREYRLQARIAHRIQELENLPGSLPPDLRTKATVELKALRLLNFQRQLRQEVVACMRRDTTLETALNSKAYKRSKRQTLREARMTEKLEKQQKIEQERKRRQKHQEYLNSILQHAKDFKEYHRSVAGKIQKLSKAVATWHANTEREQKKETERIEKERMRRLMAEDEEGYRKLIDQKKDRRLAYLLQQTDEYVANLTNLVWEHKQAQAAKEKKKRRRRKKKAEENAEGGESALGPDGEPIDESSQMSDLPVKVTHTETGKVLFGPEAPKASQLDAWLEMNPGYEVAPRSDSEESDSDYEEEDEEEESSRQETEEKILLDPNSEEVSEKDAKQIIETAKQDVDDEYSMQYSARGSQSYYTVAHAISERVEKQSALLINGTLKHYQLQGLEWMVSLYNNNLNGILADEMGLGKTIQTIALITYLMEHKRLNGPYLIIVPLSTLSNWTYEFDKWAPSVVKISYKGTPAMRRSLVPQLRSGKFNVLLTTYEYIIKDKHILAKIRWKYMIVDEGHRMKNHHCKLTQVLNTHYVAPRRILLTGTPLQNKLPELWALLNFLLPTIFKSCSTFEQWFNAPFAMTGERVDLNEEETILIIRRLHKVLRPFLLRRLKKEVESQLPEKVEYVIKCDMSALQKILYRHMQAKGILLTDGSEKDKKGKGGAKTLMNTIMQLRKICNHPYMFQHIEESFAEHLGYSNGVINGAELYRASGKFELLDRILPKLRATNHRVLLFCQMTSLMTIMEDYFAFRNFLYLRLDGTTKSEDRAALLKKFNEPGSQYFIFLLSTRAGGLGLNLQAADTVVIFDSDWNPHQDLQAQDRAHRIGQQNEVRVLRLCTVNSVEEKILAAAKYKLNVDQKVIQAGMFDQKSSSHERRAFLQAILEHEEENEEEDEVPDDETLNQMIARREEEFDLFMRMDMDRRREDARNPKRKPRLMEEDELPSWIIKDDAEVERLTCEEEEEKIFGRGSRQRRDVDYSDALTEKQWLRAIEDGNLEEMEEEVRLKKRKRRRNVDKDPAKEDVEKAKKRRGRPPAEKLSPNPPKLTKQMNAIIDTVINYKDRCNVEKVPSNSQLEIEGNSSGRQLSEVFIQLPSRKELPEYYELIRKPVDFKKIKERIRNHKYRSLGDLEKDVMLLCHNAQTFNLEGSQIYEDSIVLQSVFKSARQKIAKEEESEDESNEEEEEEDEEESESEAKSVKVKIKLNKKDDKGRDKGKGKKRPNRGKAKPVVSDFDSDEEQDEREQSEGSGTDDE
Method: as §1, §2, §3, §4

[3] = target: bromodomain of SMARCA2 protein (Homo sapiens (Human), UniProt P40337+P51531); test: SMARCA2 bromodomain ternary binding TR-FRET assay (with VCB); settings: with saturating VCB (5 μM); read-out: IC50 (SM 2_T) ternary binding potency in SMARCA2 FRET assay
Sequence of bromodomain of SMARCA2 protein (P51531 whole entry, looked up): as the sequence (P51531 whole entry) above
Sequence of bromodomain of SMARCA2 protein (P40337 whole entry, looked up): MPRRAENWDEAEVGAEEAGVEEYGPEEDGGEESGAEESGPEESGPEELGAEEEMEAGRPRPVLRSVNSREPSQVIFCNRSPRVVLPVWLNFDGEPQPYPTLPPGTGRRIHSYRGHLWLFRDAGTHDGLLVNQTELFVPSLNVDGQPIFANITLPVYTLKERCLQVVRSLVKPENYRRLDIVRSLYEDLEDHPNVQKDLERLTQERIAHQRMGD
Sequence of bromodomain of SMARCA2 protein (Q15370 whole entry partner, looked up): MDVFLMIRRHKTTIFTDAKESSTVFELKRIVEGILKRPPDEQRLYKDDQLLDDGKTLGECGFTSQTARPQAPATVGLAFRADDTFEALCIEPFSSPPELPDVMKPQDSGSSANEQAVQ
Sequence of bromodomain of SMARCA2 protein (Q15369 whole entry partner, looked up): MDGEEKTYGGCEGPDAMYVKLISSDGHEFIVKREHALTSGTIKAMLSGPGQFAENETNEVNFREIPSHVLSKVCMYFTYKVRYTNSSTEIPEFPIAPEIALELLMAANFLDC
Text: Recombinant bromodomain of SMARCA2 protein was purchased from Active Motif (Catalog #: 31449). VHL/ElonginB/ElonginC (VCB)N-terminal his6-tagged VHL (“his6” disclosed as SEQ ID NO: 4) (uniprot accession number P40337; M54-D213; […] […] […] (SEQ ID NO: 1)), Elongin B (Q15370; M1-K104; […] […] (SEQ ID NO: 2)), Elongin C (Q15369; M17-C112; […] […] (SEQ ID NO: 3)) complex were co-expressed and the complex was purified by Ni-affinity, TEV protease was then used to remove his6-tagged (SEQ ID NO: 4), and the complex was further purified by size-exclusion chromatography before use.
The inhibitory activity of compounds was evaluated in vitro using TR-FRET assay with white 384-well low volume microplate (PerkinElmer ProxiPlate Plus), in which the compound competes the same binding site with the ligand, and thus lead to dose-dependent TR-FRET signal reduction. The cooperativity of the compounds for ternary complex formation with E3 ligase was evaluated in the absence or presence of saturating concentrations of VCB. Testing compounds were dissolved in DMSO at […] and tested in 9-dose IC50. The assay mixture was prepared by mixing SMARCA2 (10 nM final), biotinylated probe (25 nM final), and assay buffer or VCB (5 μM) in 1×AlphaLISA Epigenetics Buffer (PerkinElmer AL008F) with 1 mM TCEP. The compounds in DMSO were added to each well in 3-fold serial dilution by dispenser (TECAN D300E) and incubate for 20 minutes at room temperature before addition of detection reagents, Lance Eu W1024 anti-6×His (0.6 nM final, PerkinElmer AD0110) and Streptavidin Surelight APC (6 nM final, PerkinElmer CR130-100). The plate was then sealed and further incubated at 4° C. overnight in dark, and then was read by Envision multimode plate reader (PerkinElmer, 2102-0010). The ratio of florescence signal at 665/620 was used in data analysis. Percentage inhibition was calculated by % inhibition=100×(FDMSO-F)/(FDMSO-FPC), in which FDMSO is DMSO control, and FPC is positive control. IC50 values were determined from dose response curve by fitting the percent inhibition against compound concentration using GraphPad Prism software.

[4] = tested on: NCIH1693 cells; test: Cell proliferation assay (ATPlite) in NCIH1693 cells; type: cell-based; settings: Homo sapiens, NCI-H1693, 96 h, day 4, read-out: IC50 (PRO_H1693) antiproliferation potency
Method: One thousand NCIH1693 or NCIH1703 cells per well were seeded in 96 well plate and incubated at 37° C. for 5 hrs. A series of three-fold dilution of compounds from 10 mM stock concentration were added to the cells by using digital Dispenser D300-Tecan, keeping highest concentration 10 μM and normalizing with DMSO at the highest dispensed volume). Cells incubated with DMSO was used as a vehicle control. After compound treatment plates were incubated at 37° C. for 4 days and cell viability was measured by measuring ATP content from the cell lysate using ATPlite Luminescence assay system (PerkinElmer Cat. no #6016941). Percentage of viable cells, relative to DMSO vehicle control and maximum inhibition, was calculated and plotted in Graphpad Prism ([Inhibitor] vs. normalized response−Variable slope) to determine cell proliferation IC50 values on day 4.

[5] = tested on: SMARCA4 mutated cancer cells; settings: Vangamudi et al. Cancer Res 2015; cited from earlier work

SMILES	DC50 [1] [nM]	Dmax [1] [%]	DC50 [2] [nM]	Dmax [2] [%]	IC50 [3] [nM]	IC50 [4] [nM]	effects on cell proliferation inhibition [5]
Cc1ncsc1-c1ccc([C@H](C)NC(=O)[C@@H]2C[C@@H](O)CN2C(=O)[C@@H](c2cc(OCCN3CCN4c5cc(-c6ccccc6O)nnc5NCC4C3)no2)C(C)C)cc1 (stereo partly drawn) [Example 4, (2S,4R)-4-hydroxy-1-((2R)-2-(3-(2-(2-(2-hydroxyphenyl)-5,6,6a,7,9,10-hexahydro-8H-pyrazino[1′,2′:4,5]pyrazino[2,3-c]pyridazin-8-yl)ethoxy)isoxazol-5-yl)-3-methylbutanoyl)-N-((S)-1-(4-(4-methyl-1λ^3,3λ^2-thiazol-5-yl)phenyl)ethyl)pyrrolidine-2-carboxamide]	100 to 1000	> 75	< 100	> 75	< 100	< 100	
Cc1ncsc1-c1ccc([C@H](C)NC(=O)[C@@H]2C[C@@H](O)CN2C(=O)[C@@H](NC(=O)CN2CCN3c4cc(-c5ccccc5O)nnc4NCC3C2)C(C)(C)C)cc1 (single isomer, unassigned) [Example 1a]	100 to 1000	> 75	100 to 1000	> 75	100 to 1000	100 to 1000	
O=C(/C=C/N1C[C@H]2C[C@@H]1CN2c1ccccn1)c1ccccc1O [PFI-3]							none to minor effects
